Experimental data: patent publication US5286735A, “Derivatives of 4-aminomethylpiperidine, their preparation and their use as therapeutics” (Pierre Fabre Medicament, priority 1991, dated 1994)

Target: T1, serotoninergic 5-HT1A receptors (Rattus norvegicus, UniProt P19327)
T1 construct: The hippocampus is crushed with Polytron; from tissue; host or cells: rat hippocampus membranes (male Charles River rats)
T1 sequence (P19327 1-422): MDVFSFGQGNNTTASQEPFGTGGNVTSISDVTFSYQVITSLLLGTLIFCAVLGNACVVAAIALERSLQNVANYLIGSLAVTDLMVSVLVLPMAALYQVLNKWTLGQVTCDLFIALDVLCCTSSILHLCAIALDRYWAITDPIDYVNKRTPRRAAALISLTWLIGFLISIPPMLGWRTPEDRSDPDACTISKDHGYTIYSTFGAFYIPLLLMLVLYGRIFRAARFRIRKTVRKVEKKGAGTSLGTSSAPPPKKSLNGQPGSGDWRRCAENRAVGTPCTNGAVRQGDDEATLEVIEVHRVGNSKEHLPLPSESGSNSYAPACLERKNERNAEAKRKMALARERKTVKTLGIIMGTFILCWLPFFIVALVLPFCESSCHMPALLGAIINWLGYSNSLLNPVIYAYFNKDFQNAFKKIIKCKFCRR
Test: 5-HT1A binding studies (3H-8-OH-DPAT ligand, rat hippocampus membranes)
Parameters: species or system rat (male Charles River)
Settings: 3H-8-OH-DPAT 1 nM, 30 min at 25° C.
Experimental: The 5-HT1A binding studies were carried out in accordance with Peroutka's technique (see: Peroutka, S. J.: J. Neurochem. 47:529-540, 1986). Male Charles River rats are stunned and decapitated, the brain is removed and dissected. The different cerebral areas obtained are used or preserved at minus 20° C. The hippocampus is crushed with Polytron® (20 seconds at 7) in 20 volumes of 50 mM Tris-HCl buffer (pH 7.7 at 25° C.) and centrifuged at 45,000 g for 10 min. The residue is separated, taken up in the same volume of Tris buffer and incubated for 10 min at 37° C., and then again centrifuged for 10 min at 45, 000 g. The residue is then taken up in 100 volumes of Tris-HCl buffer containing 10 μm of Pargyline, 4 mM CaCl2 and 0.1% ascorbic acid. The mixture obtained is Dounce homogenized.
The binding is effected starting with 0.8 ml of the above membrane suspension to which 0.1 ml of ^3 H-8-OH-DPAT ligand is added (in a concentration of 1 nM) and either 0.1 ml of Tris buffer (control) or the compound of the present invention is added. After incubation for 30 min at 25° C., the mixture is filtered on GF/B (Whatman) and rinsed with 5 ml of iced Tris-HCl buffer. The residue and the filter are finally introduced into a vial containing 3 ml of Instage® scintillating liquid (Packard) and the radioactivity is measured with a Packard counter (Tri-Carbs®). The IC50 are determined graphically for a ligand concentration of 1 nM.

| Compound | IC50 [nM] |
| --- | --- |
| Cc1cccc(C(=O)N2CCC(CNCC3Cc4ccccc4O3)CC2)c1 (stereo not drawn) [Compound 3, 1-(3-Methylbenzoyl) 4-[(2,3-dihydrobenzofuran-2-yl)methylaminomethyl] piperidine] | 7.5 |
| Cc1cccc(C(=O)N2CCC(CNCC3CCc4ccccc4C3)CC2)c1 (stereo not drawn) [Compound 5, 1-(3-Methylbenzoyl) 4-[(1,2,3,4-tetrahydronaphthalen-2-yl)methylaminomethyl] piperidine] | 12.5 |

The next compounds have a lower IC50 than those just listed; values first:

| IC50 [nM] | Compound |
| --- | --- |
| 2.1 | Clc1cccc(CN2CCC(CNCC3COc4ccccc4O3)CC2)c1 (stereo not drawn) [Compound 22, 1-(3-Chlorobenzyl) 4-(1,4-benzodioxan-2-ylmethylaminomethyl) piperidine] |
| 3.8 | Cc1cccc(C(=O)N2CCC(CNCC3CCc4ccccc4O3)CC2)c1 (stereo not drawn) [Compound 7, 1-(3-Methylbenzoyl) 4-[(3,4-dihydro 2[H].1-benzopyran-2-yl)methylaminomethyl] piperidine] |
| 4.4 | Cc1ccc(CN2CCC(CNCC3COc4ccccc4O3)CC2)cc1 (stereo not drawn) [Compound 17, 1-(4-Methylbenzyl) 4-(1,4-benzodioxan-2-ylmethylaminomethyl) piperidine] |
| 3 | O=C(c1ccccc1)N1CCC(CNCC2COc3ccccc3O2)CC1 (stereo not drawn) [Compound 9, 1-Benzoyl 4-(1,4-benzodioxan-2-ylmethylaminomethyl) piperidine] |
